Our source for the GI50 and TGI values is PubChem BioAssay (NCI).

Where “and” joins values, the source holds several entries; their conditions need not be identical. Equal values may be shown once.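 Exposure lasted 48 hours, with cells grown in 96-well plates and compounds tested at five concentrations. Here, GI50 denotes the concentration required for 50% inhibition of growth. TGI: concentration producing complete growth inhibition.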

Among the test systems are UACC-257 melanoma; NCI-H226 lung; CCRF-CEM leukemia; ACHN renal; OVCAR-5 ovarian; SK-OV-3 ovarian; SK-MEL-2 melanoma; A549 NSCLC; NCI-H522 lung; MOLT-4 leukemia; T-47D breast.
Assay in all cases: NCI-60 cell line screen, 48 h

With `CC(=O)OCC1OC(n2c(S)c(C#N)c(-c3ccccc3)c(C#N)c2=O)C(OC(C)=O)C(OC(C)=O)C1OC(C)=O` (centres undefined), the GI50 was > 100 µM and 36.2 µM in the assay with UACC-257 melanoma; > 100 µM and 43.1 µM in the assay on CCRF-CEM leukemia; > 100 µM and 39.7 µM with OVCAR-5 ovarian; 99.5 µM and 32.1 µM with SK-OV-3 ovarian; > 61.6 µM and 13.6 µM in the assay on SK-MEL-2 melanoma; 54.8 µM and 27 µM in the assay with NCI-H522 lung. Besides, the GI50 is > 100 µM and 23.6 µM with MOLT-4 leukemia; > 100 µM and 18.6 µM in the assay on T-47D breast. The TGI is > 100 µM and 81.4 µM in the assay on UACC-257 melanoma; more than 100 µM in the assay with NCI-H226 lung; > 100 µM and 96.7 µM in the assay on CCRF-CEM leukemia; more than 100 µM in the assay with ACHN renal; more than 100 µM with OVCAR-5 ovarian; > 100 µM and 96.6 µM with SK-OV-3 ovarian. The TGI with SK-MEL-2 melanoma is > 100 µM and 31.8 µM; in the assay with A549 NSCLC it was more than 100 µM; with NCI-H522 lung, > 100 µM and 51.3 µM; in the assay with MOLT-4 leukemia it was > 100 µM and 50.8 µM; in the assay with T-47D breast, > 100 µM and 54.4 µM.
Regarding `CC(=O)OC1[C@H](OC(C)=O)C2=C(C)[C@@H](OC(C)=O)C[C@@]2(C(C)(C)O)[C@@H](OC(C)=O)[C@H]2[C@@]1(C)[C@@H](OC(C)=O)CC(OC(C)=O)[C@]21CO1` (some centres undefined), the TGI in the assay on UACC-257 melanoma, in the assay on NCI-H226 lung, in the assay on CCRF-CEM leukemia, in the assay on ACHN renal, in the assay with OVCAR-5 ovarian and in the assay with SK-OV-3 ovarian was more than 100 µM throughout. Moreover, the TGI in the assay with SK-MEL-2 melanoma, with A549 NSCLC, in the assay with NCI-H522 lung, in the assay with MOLT-4 leukemia and in the assay with T-47D breast was more than 100 µM each time.
Take `COC(=O)C1(SC)C2CCC3C2CCC31` (centres undefined): the TGI in the assay on UACC-257 melanoma, in the assay on NCI-H226 lung, in the assay with CCRF-CEM leukemia, with ACHN renal, in the assay on OVCAR-5 ovarian and in the assay on SK-OV-3 ovarian was more than 100 µM in each case. The TGI in the assay on SK-MEL-2 melanoma, in the assay on A549 NSCLC, in the assay with NCI-H522 lung, in the assay with MOLT-4 leukemia and in the assay on T-47D breast was more than 100 µM each time.
With `CC(Oc1ccccc1)C(=O)NNC(=O)OC(C)(C)C` (centres undefined), the TGI with UACC-257 melanoma, in the assay on NCI-H226 lung, in the assay with CCRF-CEM leukemia, with ACHN renal, in the assay on OVCAR-5 ovarian and in the assay with SK-OV-3 ovarian was more than 100 µM throughout. Besides, the TGI with SK-MEL-2 melanoma, in the assay on A549 NSCLC, in the assay with NCI-H522 lung, in the assay with MOLT-4 leukemia and in the assay on T-47D breast was more than 100 µM throughout.
Take `CCOC(=O)/C=C(\C(=O)OCC)n1cc(C)c(=O)n(Cc2cnnn2COCCOC(C)=O)c1=O`: the TGI was 26.3 µM with UACC-257 melanoma; 35 µM in the assay on NCI-H226 lung; 5.57 µM in the assay on CCRF-CEM leukemia; 7.46 µM in the assay on ACHN renal; 43.8 µM in the assay with OVCAR-5 ovarian; more than 100 µM with SK-OV-3 ovarian. Moreover, the TGI in the assay on SK-MEL-2 melanoma came out at 41.7 µM; in the assay with A549 NSCLC it was 47.1 µM; with NCI-H522 lung it was 2.91 µM; in the assay with MOLT-4 leukemia, 8.7 µM; in the assay with T-47D breast, 28.9 µM.
Turning to `O=c1c(Cc2ccc(Cl)cc2)nnc2sc(-c3ccc(-c4ccc(Cl)cc4Cl)o3)nn12`, the TGI in the assay with UACC-257 melanoma, in the assay on NCI-H226 lung, with CCRF-CEM leukemia, in the assay with ACHN renal, with OVCAR-5 ovarian and in the assay with SK-OV-3 ovarian was more than 100 µM each time. The TGI in the assay with SK-MEL-2 melanoma, in the assay on A549 NSCLC, with NCI-H522 lung, with MOLT-4 leukemia and in the assay on T-47D breast was more than 100 µM each time.
For `Brc1cccc(C2ON=C(c3ccccc3)N2C23CC4CC(CC(C4)C2)C3)c1` (centres undefined), the TGI in the assay on UACC-257 melanoma, in the assay on NCI-H226 lung, in the assay on CCRF-CEM leukemia, with ACHN renal, in the assay on OVCAR-5 ovarian and with SK-OV-3 ovarian was more than 10 µM each time. The TGI in the assay on SK-MEL-2 melanoma, with A549 NSCLC, in the assay with NCI-H522 lung, in the assay with MOLT-4 leukemia and in the assay on T-47D breast was more than 10 µM each time.
Consider `O=C1C(c2c(O)[nH]c3ccc(Br)cc23)=Nc2ccc(Br)cc21`, for which the TGI in the assay on UACC-257 melanoma is more than 100 µM; with NCI-H226 lung, more than 100 µM; in the assay with CCRF-CEM leukemia, more than 100 µM; in the assay on ACHN renal, more than 100 µM; in the assay with OVCAR-5 ovarian, more than 100 µM; in the assay with SK-OV-3 ovarian, 90.8 µM. The TGI with SK-MEL-2 melanoma, in the assay with A549 NSCLC, in the assay on NCI-H522 lung, with MOLT-4 leukemia and with T-47D breast was more than 100 µM throughout.
On to `COC1C(N(C)C)=C(c2ccccc2)C(=O)N2CCc3ccccc3C12` (centres undefined), for which the TGI in the assay with UACC-257 melanoma, in the assay with NCI-H226 lung, in the assay on CCRF-CEM leukemia, in the assay with ACHN renal, with OVCAR-5 ovarian and in the assay with SK-OV-3 ovarian was more than 100 µM in each case. In addition, the TGI with SK-MEL-2 melanoma, with A549 NSCLC, in the assay with NCI-H522 lung, in the assay with MOLT-4 leukemia and with T-47D breast was more than 100 µM in each case.
For `CC1OC(OC2C(O[C@H]3CC[C@@]4(C)C(=CC[C@H]5[C@@H]6C[C@@H]7O[C@]8(CC[C@@H](C)CO8)[C@@H](C)[C@@H]7[C@@]6(C)CC[C@@H]54)C3)OC(CO)C(O)C2O)C(O)C(O)C1O` (some centres undefined), the TGI in the assay on UACC-257 melanoma stood at 4.9 µM; with NCI-H226 lung, 8.03 µM; in the assay on CCRF-CEM leukemia, 1.21 µM; in the assay on ACHN renal, 3.44 µM; in the assay on OVCAR-5 ovarian it was 6.16 µM; in the assay with SK-OV-3 ovarian, 6.14 µM. The TGI was 6.21 µM with SK-MEL-2 melanoma; 1.76 µM in the assay with A549 NSCLC; 2.77 µM with NCI-H522 lung; more than 25 µM in the assay with MOLT-4 leukemia; 8.66 µM in the assay with T-47D breast.
Regarding `Cc1nc2sc(C(=O)c3ccc(Cl)cc3)c(N)c2c(-c2ccccc2Cl)c1C(=O)Nc1ccccc1`, the TGI with UACC-257 melanoma is 61.8 µM; in the assay on NCI-H226 lung it was 62.1 µM; with CCRF-CEM leukemia, 19.9 µM; with ACHN renal, 67.7 µM; in the assay on OVCAR-5 ovarian, 38.6 µM; in the assay with SK-OV-3 ovarian, 31.3 µM. In addition, the TGI in the assay on SK-MEL-2 melanoma is 32.8 µM; in the assay on A549 NSCLC, 31.4 µM; in the assay with NCI-H522 lung, 25.1 µM; in the assay with MOLT-4 leukemia, 51.5 µM; in the assay with T-47D breast, 19 µM.
